The structures appear in SMILES notation.

In this experiment the target is T1, Formate dehydrogenase (FDH, Candida boidinii) ([Candida] boidinii, UniProt O13437).
T1 sequence (O13437 1-364): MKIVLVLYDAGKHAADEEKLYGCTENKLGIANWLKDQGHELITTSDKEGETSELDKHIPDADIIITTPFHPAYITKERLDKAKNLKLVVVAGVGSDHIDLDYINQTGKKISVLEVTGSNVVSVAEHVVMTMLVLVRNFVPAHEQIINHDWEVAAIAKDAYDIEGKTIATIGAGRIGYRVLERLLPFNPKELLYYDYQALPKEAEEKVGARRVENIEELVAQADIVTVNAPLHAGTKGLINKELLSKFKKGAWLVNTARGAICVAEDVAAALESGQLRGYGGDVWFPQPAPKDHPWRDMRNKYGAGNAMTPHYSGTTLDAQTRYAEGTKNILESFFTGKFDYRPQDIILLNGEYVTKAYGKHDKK
Description: isothermal titration calorimetry. The format is binding.

On to `[N-]=[N+]=NCc1ccc[n+]([C@@H]2O[C@H](COP(=O)(O)OP(=O)(O)OC[C@H]3O[C@@H](n4cnc5c(N)ncnc54)[C@H](O)[C@@H]3O)[C@@H](O)[C@H]2O)c1` [PAAD^+], for which the affinity, expressed as Kd, was 7 µM.

These data come from article PMC3260785 (The Journal of Physical Chemistry. B, 2011).
